# Like-named read-outs stand apart in the source and are kept apart here.
# How the values were obtained:
# [1] = biological target: BuChE (Homo sapiens, UniProt P06276); test: In vitro screening assay, BuChE inhibition; assay type: biochemical
# Description: An in vitro screening assay with various conjugates was completed according to the methods described in Ellman G L et al., Biochem Pharmacol., 7:88-95 (1961) and in Nadarajah B, J. Anal. Toxicol., 16:192-193 (1992), both of which are herein incorporated by reference in their entireties. The assay method was completed according to the following: […]
# [2] = tested on: male CD IGS (Sprague Dawley derived) rats; test: Dose range for cholinergic effects / max tolerated dose; conditions: for TIMTD/ MED: ratio of max tolerated dose to hypothermia MED, rats s.c.
# Experimental: The dose range and time course for cholinergic effects of the compounds of the invention was determined as described below. • Subjects: Two hundred eight male CD IGS (Sprague Dawley derived) rats were received at 126-150 grams and maintained four per cage on a regular light/dark cycle (lights on 0600-1800) with ad libitum food and water for about 1 week before commencement of experimentation. • Apparatus: Injections were made subcutaneously (s.c.) with a 25-gauge needle on a 1-mL tuberculin syringe. Observations were made in a 5½×10-inch polycarbonate rat housing cage. Temperature was taken with a rat rectal probe on a Model BAT-12 electronic thermometer. • Compound Preparation: Test compounds were dissolved for example, in 0.9% saline. […] Injection volumes were 1 mL/kg, if the test compound was sufficiently soluble. If less soluble, maximum injection volume were 5 mL/kg.
# Test Compounds were dosed at 1, 3, 10, 30, and 100 mg/kg • Procedure: The rats were brought to the test room in the home cage. Baseline temperatures were measured just before injection. After injection s.c., the rat was placed in the observation cage. At 0.5, 1, 2, and 4 hours after injection, it was observed briefly for gross signs; salivation was scored as absent, clearly present, or copious; and rectal temperature was taken. In observation for gross signs, special attention was paid to fasciculation (muscle twitch), tremor/ataxia, and abnormal gait. The experiment was designed to allow assessment of one rat per time point per minute. Salivation score and temperature were determined within this constraint, but only the most salient of gross signs were noted. After the 4-hour observation point, or sooner if signs of distress were observed, the rat was euthanized by CO2 inhalation. • Data Analysis: Gross signs, salivation score, and temperature at each time point were tabulated for inspection. This is a combination of within-subject design for control and between-subjects design for dose effect. That is, the effect of the compound was measured against the reading taken immediately before injection, and the difference between doses of the compound was measured between groups of three rats.
# [3] = tested on: male CD IGS (Sprague Dawley derived) rats; test: Measurement of hypothermia (marker of CNS penetration for AChE inhibitors); assay type: in vivo; conditions: Rattus norvegicus, sc, read-out: Hypothermia MED (mg/kg)
# Experimental: The induction of hypothermia was determined for compounds of the invention according to the methods described in Freedman, et al., European Journal of Pharmacology, 187 (1990), 193-199, which is incorporated by reference herein. Hypothermia is a marker of CNS penetration for AChE inhibitors.
# The dose range and time course for cholinergic effects of the compounds of the invention was determined as described below. • Subjects: Two hundred eight male CD IGS (Sprague Dawley derived) rats were received at 126-150 grams and maintained four per cage on a regular light/dark cycle (lights on 0600-1800) with ad libitum food and water for about 1 week before commencement of experimentation. • Apparatus: Injections were made subcutaneously (s.c.) with a 25-gauge needle on a 1-mL tuberculin syringe. Observations were made in a 5½×10-inch polycarbonate rat housing cage. […]
# Test Compounds were dosed at 1, 3, 10, 30, and 100 mg/kg • Procedure: The rats were brought to the test room in the home cage. Baseline temperatures were measured just before injection. […] At 0.5, 1, 2, and 4 hours after injection, it was observed briefly for gross signs; salivation was scored as absent, clearly present, or copious; and rectal temperature was taken. […] Salivation score and temperature were determined within this constraint, but only the most salient of gross signs were noted. […]
# [4] = biological target: T1, human recombinant acetylcholinesterase (Homo sapiens, UniProt P22303); test: biochemical; conditions: human recombinant AChE, 25° C., 30 minutes preincubation, Dixon plot
# T1 construct: purchased Sigma Chemical Co (St. Louis, Mo.) C1682
# T1 sequence (P22303 32-614): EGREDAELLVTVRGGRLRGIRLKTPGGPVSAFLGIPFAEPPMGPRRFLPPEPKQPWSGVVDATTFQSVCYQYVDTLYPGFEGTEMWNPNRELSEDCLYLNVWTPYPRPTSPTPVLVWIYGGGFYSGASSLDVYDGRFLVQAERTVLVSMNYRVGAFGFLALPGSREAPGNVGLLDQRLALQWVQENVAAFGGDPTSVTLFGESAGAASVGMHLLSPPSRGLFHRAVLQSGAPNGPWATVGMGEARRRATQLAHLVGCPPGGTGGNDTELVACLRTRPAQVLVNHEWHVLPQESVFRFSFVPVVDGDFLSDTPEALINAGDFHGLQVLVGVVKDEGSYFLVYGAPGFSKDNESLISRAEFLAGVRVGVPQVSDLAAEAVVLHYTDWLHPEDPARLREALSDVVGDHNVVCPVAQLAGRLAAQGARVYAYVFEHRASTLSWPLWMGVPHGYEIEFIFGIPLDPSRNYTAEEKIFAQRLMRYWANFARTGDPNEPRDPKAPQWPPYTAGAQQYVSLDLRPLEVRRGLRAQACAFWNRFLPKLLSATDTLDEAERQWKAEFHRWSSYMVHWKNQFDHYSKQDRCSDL
# [5] = tested on: rats; test: Methamphetamine drug discrimination test
# [6] = biological target: T2, AChE (Human recombinant HEK-293 cells) (Homo sapiens, UniProt P22303); assay type: biochemical
# T2 construct: host or cells: HEK-293 cells (expression host as printed)
# T2 sequence (P22303 32-614): as above
# BuChE, sequence (P06276 29-602): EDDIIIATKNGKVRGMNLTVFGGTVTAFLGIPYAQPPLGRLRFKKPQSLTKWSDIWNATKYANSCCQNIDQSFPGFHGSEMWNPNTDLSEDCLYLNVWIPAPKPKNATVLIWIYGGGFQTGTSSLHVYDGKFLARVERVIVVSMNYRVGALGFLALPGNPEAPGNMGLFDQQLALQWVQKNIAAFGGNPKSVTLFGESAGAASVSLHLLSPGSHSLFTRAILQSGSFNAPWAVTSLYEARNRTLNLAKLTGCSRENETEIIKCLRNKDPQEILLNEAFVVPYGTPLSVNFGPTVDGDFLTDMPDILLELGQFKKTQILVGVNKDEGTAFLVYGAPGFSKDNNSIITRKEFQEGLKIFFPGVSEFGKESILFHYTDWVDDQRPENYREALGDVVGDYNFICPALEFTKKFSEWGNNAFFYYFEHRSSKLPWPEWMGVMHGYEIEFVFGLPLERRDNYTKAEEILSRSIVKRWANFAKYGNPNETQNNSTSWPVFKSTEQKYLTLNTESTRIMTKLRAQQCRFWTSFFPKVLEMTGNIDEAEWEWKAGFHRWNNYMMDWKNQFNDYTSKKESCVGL
SMILES,BuChE I (%) 10 μM ([1]; 10 μM) [%],TIMTD/ MED [2],other results
"C[C@@H](c1cccc(OC(=O)N[C@H]2C[C@@H]2c2ccccc2)c1)N(C)C (stereo in doubt) [Compound 2, S-riva-tranylcypromine]",67,3,–
"C[C@@H](c1cccc(OC(=O)N2CCN(C3=Nc4ccccc4Oc4ccc(Cl)cc43)CC2)c1)N(C)C [Compound 3, S-riva-amoxapine]",6,≧10,–
"COc1ccccc1CC(C)N(C)C(=O)Oc1cccc([C@H](C)N(C)C)c1 (stereo partly shown) [Compound 15, S-riva-methoxyphenamine]",30,–,–
"C[C@@H](c1cccc(OC(=O)N(C)CCC(Oc2ccc(C(F)(F)F)cc2)c2ccccc2)c1)N(C)C (stereo partly shown) [Compound 7A, S-riva-fluoxetine]",15,≧30,–
"C[C@@H](c1cccc(OC(=O)N(C)CCC=C2c3ccccc3CCc3ccccc32)c1)N(C)C [Compound 5A, S-riva-nortriptyline]",55,≧100,"minimal effective dose [3]: ≤ 1 mg/kg; Max Tolerated Dose ([2]; rats, s.c., test doses given in mg/kg): ≧100"
"CC(CC1CCCCC1)N(C)C(=O)Oc1cccc([C@H](C)N(C)C)c1 (stereo partly shown) [Compound 16, S-riva-propylhexedrine]",–,≧10,–
"C[C@@H](c1cccc(OC(=O)N(C)CCCC2c3ccccc3C=Cc3ccccc32)c1)N(C)C [Compound 6A, S-riva-protriptyline]",53,>1,–
"Cc1ccccc1O[C@H](CCN(C)C(=O)Oc1cccc([C@H](C)N(C)C)c1)c1ccccc1 [Compound 5, S-riva-atomoxetine]",14,–,–
"COCCCC/C(=N\OCCNC(=O)Oc1cccc([C@H](C)N(C)C)c1)c1ccc(C(F)(F)F)cc1 [Compound 8A, S-riva-fluvoxamine]",6,–,–
"C[C@@H](Cc1ccccc1)NC(=O)Oc1cccc([C@H](C)N(C)C)c1 [Compound 20, S-riva-d-amphetamine]",–,–,IC50 [4]: 0.449 µM
"C#CCN(C(=O)Oc1ccc2c(c1)[C@]1(C)CCN(C)[C@@H]1N2C)[C@H](C)Cc1ccccc1 [Compound 18, Physo-desmethylselegiline]",8,–,–
"C[C@H](Cc1ccccc1)N(C)C(=O)Oc1cccc([C@H](C)N(C)C)c1 [Compound 7, S-riva-l-methamphetamine]",–,–,"generalization to methamphetamine (lever selection) ([5]; rats trained to discriminate methamphetamine from vehicle, compound 7 at 0.01-3.2 mg/kg i.p., FIG. 1 top): lack of stimulus generalization to methamphetamine; behavioral disruption ([5]; rats, 1.0 mg/kg of compound 7, FIG. 2 lower): without behavioral disruption; rate of responding ([5]; rats, compound 7 at 0.01-3.2 mg/kg i.p., FIG. 1 lower): markedly decreased reponse rates"
"CN1CC[C@@]2(C)c3cc(OC(=O)Nc4ccccc4)ccc3N(C)[C@@H]12 [Phenserine, reference compound]",–,–,BuChEI (%) 1 μM [6]: 93%; BuChE I (%) 10 μM [1]: 42%
"C#CCN(C(=O)Oc1cccc([C@@H](C)N(C)C)c1)[C@H](C)Cc1ccccc1 [Compound 17, R-riva-desmethylselegiline]",12,–,–
"C#CCN(C(=O)Oc1cccc([C@H](C)N(C)C)c1)[C@H](C)Cc1ccccc1 [Compound 11, S-riva-desmethylselegiline]",17,–,–
"CCN(C)C(=O)Oc1cccc([C@H](C)N(C)C)c1 [Compound 1, S-rivastigmine, reference compound]",–,–,BuChE I (%) 10 μM [1]: 100%
"C[C@@H](c1cccc(OC(=O)N(C)CC[C@H](Oc2cccc3ccccc23)c2cccs2)c1)N(C)C [Compound 10A, S-riva-duloxetine]",36,–,–
"C[C@@H](c1cccc(OC(=O)N2CC[C@@H](c3ccc(F)cc3)[C@H](COc3ccc4c(c3)OCO4)C2)c1)N(C)C [Compound 9A, S-riva-paroxetine]",4,–,–
"C[C@@H](c1cccc(OC(=O)N(C)CCCN2c3ccccc3CCc3ccccc32)c1)N(C)C [Compound 4A, S-riva-desipramine]",60,≧30,–
"C[C@@H](c1cccc(OC(=O)N(C)[C@@H](C)Cc2ccccc2)c1)N(C)C [Compound 13, S-riva-d-methamphetamine]",–,–,IC50 [4]: 5.44 µM
